Laboratory results reported in patent US6740678B2, “Method of treatment of cardiovascular injuries” (Children's Medical Center Corporation, priority 1998, dated 2004).

What was measured:
Apo E-/-mice [1] = assay: Plaque area at the aortic origin in cholesterol-fed Apo E-/- mice; type: in vivo; conditions: for Plaque measurements at the aortic origin versus control: early-stage experiment, treated age 6 to 22 weeks, not shown; for Inhibition of plaque growth: age 20 to 36 weeks, [100][1-(median treated-0.25)/(median control-0.25)]
From the text: Male Apo E-/-mice (Jackson Labs, Bangor Me.) were fed a 0.15% cholesterol diet (Western Type #88137, Teklad) from age 6-8 weeks. At 20 weeks of age, ten animals were sacrificed to evaluate the baseline extent of atherosclerosis.
(§1) After 16 weeks of treatment, animals were euthanized with methoxyflurane. A blood sample was obtained from the right ventricle for the analysis of serum cholesterol, performed by an automated calorimetric assay on a Hitachi 917 instrument (Children's Hospital, Boston, Mass.). The heart and aorta were perfusion-fixed with 2% paraformaldehyde and dissected as described (Palinski, W., et al., Arterioscler. Thromb. 14: 605-16, 1994; Tangirala, R. K., et al., J. Lipid Res. 36:2320-8, 1995). Atherosclerotic plaques in the aortas were used for histology and plaque areas were only determined at the aortic origin (Paigen, B., et al., Artherosclerosis 68: 231-40, 1987). However, to document the extent of disease in the total aorta, the unopened aortas were photographed.
(§2) The effects of these angiogenesis inhibitors on late stage lesions were then compared to their effects on early lesions, in which intimal vessels were rarely observed. Animals were treated with endostatin or TNP-470 from age 32 to 48 weeks (late-stage experiment) or from 6 to 22 weeks (early-stage experiment). Plaque involvement was measured at the aortic origin. Since the aortas from early stage animals were not used for immunohistochemistry in these experiments, the extent of atherosclerosis was also measured in the entire aorta (percent surface area of Sudan IV stained-lesions; Paliniski, W., et al., Arteriosclr. Thromb. 14: 605-16, 1994).
(§3) The Apo E-/-mice received 20 mg/kg of endostatin subcutaneously every day.
The fumagillin analogue TNP-470 was provided for these studies by TAP Holdings, Deerfield Ill. An injection solution of TNP-470 (3 mg/ml) was freshly prepared and mice received 30 mg/kg subcutaneously every other day. Control animals received a similar volume of saline or endostatin buffer.
(§4) Plaque Area. To determine the extent of atherosclerosis at the aortic origin, 40 serial sections (8-10 Tm thickness) of the aortic sinus were collected on 10 slides (Paigen, B., et al., Artherosclerosis 68: 231-40, 1987). Every second slide was stained with hematoxylin and eosin for morphometry. The rest were used for immunohistochemistry to count intimal vessels and determine intimal smooth muscle cell contents. Plaque images were captured at 100× magnification with a Hitachi HV-C20 3CCD digital camera and measured with the Leica Q500MC image analysis program (Dong, Z. M., et al., J. Clin. Invest. 102: 145-52, 1998). Lesion area for each animal was reported as the mean intimal cross-sectional area (mm^2). In the early-stage experiment, plaque involvement in the entire aorta was also measured by image analysis as the percentage of aortic surface area covered with lesions (Tangiala, R. K., et al., J. Lipid. Res. 36: 2320-8, 1995; Dong, Z. M., et al., J. Clin. Invest. 102: 145-52, 1998)

[2] = Animal health, weight and tolerability during treatment; type: in vivo, mice
Description: Animal health and weight was monitored throughout treatment.
as §3

Apo E-/-mice [3] = assay: Extent of atherosclerosis in the entire aorta (Sudan IV stained lesions, photographed aortas); type: in vivo; conditions: for Median percent plaque area of the entire aorta (Sudan IV-positive lesions): early-stage experiment, treated age 6 to 22 weeks, control 14.4%; for Plaque surface area on photographed images of the entire aorta: treated 20 to 36 weeks, not shown
From the text: as §1, §2, §4

Apo E-/-mice [4] = assay: Intimal vessels in aortic sinus plaques by immunohistochemistry (CD31, vWf); type: in vivo; conditions: for Neovascularization (+) aortic sinus plaques (number): of 22 (endostatin) and 27 (TNP-470) plaques, control 7 of 24; for Percentage of aortic sinus plaques that contained any intimal vessels: treated mice, control 29%
Description: To detect intimal capillaries, the hearts and portions of the descending aorta with substantial lesions were embedded in paraffin, sectioned (10 μm), digested with 0.02% protease XXIV (Sigma) for 6 minutes at room temperature, and incubated with rabbit polyclonal anti-human vWf antibody (Dako, Carpinteria, Calif., 1:500 dilution) or rat monoclonal anti-mouse CD31 antibody (Pharmigen, San Diego, Calif., 20 Tg/ml). When acetone-fixed frozen sections were stained, the CD31 antibody was used at 5 Tg/ml. The bound antibodies against vWf or CD31 were detected with biotinylated goat anti-rabbit or rabbit anti-rat (mouse absorbed) antibodies (Vector, Burlinghame, Calif., 1:250 dilution) and the avidin-biotin peroxidase complex (ABC standard kit, Vector). A red reaction product was produced with 3-amino-9-ethyl carbazole substrate (AEC, Dako) and sections were counterstained with Gill's hematoxylin (Sigma). Vascular sections incubated with non-immune serum served as negative controls. Positive staining of the endothelium on the lumen and in adventitial capillaries served as an internal control. Intimal vessels were identified under high power (400×) and counted when both an endothelial cell nucleus and lumen were seen and when the vessel was also observed in an adjacent section.
as §4

Apo E-/-mice [5] = assay: Intimal smooth muscle cell content of aortic sinus lesions; type: in vivo; conditions: median (range), control 20.4
Description: Smooth muscle cells were identified with a monoclonal IgG2a antibody against human smooth muscle cell I actin (Dako, M0851; Nakashima, Y., et al, Arteriocler. Thromb. 14: 133-40, 1994). Sections were immersed in 0.1 M sodium citrate, pH 6.0 and heated for 10 minutes in the microwave. Primary antibody was bound to sections at 3 Tg/ml and then visualized with biotinylated anti-mouse IgG2a antibody (1:200 dilution, Amersham RPN1181) and the ABC method described above. The adjacent medial layer of vessels served as positive control.
Intimal smooth muscle cell content. To determine if angiogenesis inhibitor treatments affected smooth muscle cell migration or proliferation in lesions, two slides from the middle of the aortic sinus were stained for smooth muscle cell α actin. For each animal, the number of intimal smooth muscle cells and total cell nuclei were counted in 8 non-overlapping fields. A smooth muscle cell was counted only if it stained for smooth muscle cell α actin and its cell nucleus was seen. The mean percentage of smooth muscle cells relative to total cells was determined for each animal.

angiogenesis = conditions: corneal micropocket assay; Ingber 1990; cited from earlier work
Apo E-/-mice [6] = assay: Plaque cell density of aortic sinus lesions; type: in vivo; conditions: aortic sinus plaques, median (range), control 1183
Description: Plaque cell density. Cell densities in aortic sinus plaques were evaluated to determine if endostatin or TNP-470 treatments affected lesion cellularity. Cell nuclei in the intima of the aortic sinus plaques were counted at three mid-lesion levels (slides 4, 6, and 8). Cell density was reported as the number of cells per intimal area (cells/mm^2).

primary tumor growth = conditions: 20 mg/kg per day s.c.; Boehm 1997; cited from earlier work
[7] = first experiment, treated age 20 to 36 weeks, endostatin 20 mg/kg s.c. daily, TNP-470 30 mg/kg s.c. every other day, control 0.751, baseline 0.250
[8] = late-stage experiment, treated age 32 to 48 weeks, control 0.584
[9] = second experiment, treated 20 to 36 weeks, control 0.690

| Substance | Plaque measurements at the aortic origin versus control (Apo E-/-mice [1]) | Inhibition of plaque growth (Apo E-/-mice [1]; first experiment) [%] | Median plaque area at the aortic origin (Apo E-/-mice [1]; [7]) [mm^2] | Median plaque area at the aortic origin (Apo E-/-mice [1]; [8]) [mm^2] | Median plaque area at the aortic origin (Apo E-/-mice [1]; [9]) [mm^2] | Median percent plaque area of the entire aorta (Sudan IV-positive lesions) (Apo E-/-mice [3]) [%] | Plaque surface area on photographed images of the entire aorta (Apo E-/-mice [3]) | Neovascularization (+) aortic sinus plaques (number) (Apo E-/-mice [4]) | Percentage of aortic sinus plaques that contained any intimal vessels (Apo E-/-mice [4]) [%] | SMC (%), median smooth muscle cell content of aortic sinus lesions (Apo E-/-mice [5]) | also measured |
| --- | --- | --- | --- | --- | --- | --- | --- | --- | --- | --- | --- |
| O-chloracetyl-carbamoylfumagillol [TNP-470] | no difference | 70 | 0.402 | 0.448 | 0.370 | 11.7 | noticeable reduction | 0 | 0 | 19.8 (14.6-23.5) % | Percentage of animals available for analysis ([2]; all studies, control 91%): 89%; Weight gained during treatment ([2]; treated age 20 to 36 weeks, control 8 g): 4 g; Median weight after treatment ([2]; treated age 20 to 36 weeks, control 35 g): 31 g; Final weight ([2]; treated age 32 to 48 weeks, control 35 g): 33 g; Inhibition of angiogenesis (angiogenesis): 70% |
| endostatin | no difference | 85 | 0.321 | 0.422 | 0.475 | 9.6 | noticeable reduction | 1 | 5 | 19.4% | Tolerability of injections ([2]; 20 mg/kg s.c. every day): tolerated the injections; Percentage of animals available for analysis ([2]; mouse, in vivo): 92%; SMC (%), median smooth muscle cell content of aortic sinus lesions (Apo E-/-mice [5]; listed as Endostatin): 19.4 (16.2-22.7) %; Cell Density, median (Apo E-/-mice [6]): 1645 cells/mm^2; Cell Density, median (Apo E-/-mice [6]; listed as Endostatin): 1646 (962-2361) cells/mm^2; Inhibition of primary tumor growth (primary tumor growth): over 95% |
